We go through 4 compounds from PMC11111691, “Cystine-knot peptide inhibitors of HTRA1 bind to a cryptic pocket within the active site region” (Nature Communications, 2024).

One data set concerns the target T1, HTRA1^PD(SA) (Homo sapiens, UniProt Q92743, S328A).
T1 construct: The protease domains of human HTRA1 (HTRA1^PD; D161-K379); made in house; host or cells: E. coli
In words: SPR binding kinetics to HTRA1^PD(SA). The following applies: mean ± S.D. of three or more independent experiments. The protocol: Surface plasmon resonance (SPR) experiments were performed using a Biacore S200 instrument at 25 °C. His-tagged HTRA proteins were captured on a CM5 sensor chip using the His-capture kit (GE Healthcare). Protein concentrations used for immobilization were as follows; HTRA1^PD(SA), HTRA1^PD and HTRA1^PD-ABP 2 µg/ml with 60-s injections at 10 µl/min, HTRA2^PD/PDZ, HTRA3^PD/PDZ, and HTRA4^PD/PDZ 4 µg/ml with 60-s injections at 10 µl/min. Approximate immobilization levels of HTRA proteins were as follows; HTRA1^PD(SA) 700 RU, HTRA1^PD 900 RU, HTRA1^PD-ABP 900 RU, HTRA2^PD/PDZ 500 RU, HTRA3^PD/PDZ 500 RU, HTRA4^PD/PDZ 500 RU. All CKPs were prepared in HBS-EP buffer (0.01 M HEPES pH 7.4, 0.15 M NaCl, 3 mM EDTA, 0.005% v/v Surfactant P20). All CKP concentrations were injected for 120 s at a flow rate of 30 μl/min. A reference channel was subtracted from the HTRA-captured channel.
Binding kinetics of peptides to HTRA1^PD(SA) were determined by flowing six serial three-fold dilutions of peptide over the HTRA1^PD(SA) immobilized surface using a single cycle kinetics model. CKP maximum concentrations were as follows: 1A7, 1A8, 1C10, 2D5, and 3A7, 300 nM; 1G10-ENI and 1D3-ENI, 100 nM; 3B3, 3000 nM; and CPI, 10,000 nM. Data were analyzed using GE BIA evaluation software using a 1:1 Langmuir binding model. The KD values, calculated from the determined kon and koff values, were the mean ± S.D. of 3–4 independent experiments.

The target of a further data set is T2, HTRA4^PD/PDZ, HTRA4^FL (Homo sapiens, UniProt P83105).
T2 construct: purchased Abcam (FL form); the PD/PDZ form was made in house in E. coli ab134444
T2 sequence (P83105 32-476): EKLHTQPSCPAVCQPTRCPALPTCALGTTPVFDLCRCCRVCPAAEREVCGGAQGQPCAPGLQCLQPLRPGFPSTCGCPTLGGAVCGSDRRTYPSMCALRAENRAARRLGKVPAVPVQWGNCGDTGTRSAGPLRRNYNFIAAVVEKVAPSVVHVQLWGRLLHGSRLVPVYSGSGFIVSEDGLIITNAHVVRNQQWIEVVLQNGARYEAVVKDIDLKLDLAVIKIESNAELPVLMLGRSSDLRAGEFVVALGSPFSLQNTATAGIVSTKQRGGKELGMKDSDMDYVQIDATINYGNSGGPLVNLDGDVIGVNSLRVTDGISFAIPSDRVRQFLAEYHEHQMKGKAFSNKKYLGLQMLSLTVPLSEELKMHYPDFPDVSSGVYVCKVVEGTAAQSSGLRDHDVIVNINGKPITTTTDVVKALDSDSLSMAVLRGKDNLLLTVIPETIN
Description: H2-OPT selectivity assay, HTRA4. In kind it is biochemical. To be noted: 6 nM HTRA4^FL, 2 µM CKP; p<0.001 vs DMSO. The protocol: (§1) Assays with the fluorescence-quenched synthetic substrate Mca-IRRVSYSFK(Dnp)K (H2-OPT)[38],[60] were carried out essentially as described. CKP stock solutions in DMSO were diluted in TNC buffer (dilution series for IC50 determinations, or final concentration of 2 µM for selectivity assay or as indicated for HTRA1/4 mutants) and incubated with enzymes in 96-well black optical bottom plates for 60 min at 37 °C. For selectivity experiments we used the 7mer-ABP as inhibitor, which was incubated with the proteases for 15 min at 37 °C. A 10 mM stock solution of H2-OPT in DMSO was diluted with water, prewarmed at 37 °C and then added to the CKP-enzyme mixtures. The final concentrations in the reaction mixtures were: 1 nM HTRA1^FL, 3 nM HTRA1^PD/PDZ, 1 nM HTRA1^PD, 1 nM HTRA2^PD/PDZ, 3 nM HTRA3^FL, 60 nM HTRA3^PD/PDZ, 6 nM HTRA4^FL, 1 µM HTRA4^PD/PDZ, 1 nM mouse HTRA1^PD, 25 nM HTRA1^PD-A202Y, 1 µM HTRA4^PD/PDZ-Y200A, 0.5 mM 7mer-ABP, 5 µM H2-OPT, and 0.25% DMSO. The kinetics of substrate cleavage was measured at 37 °C on a SpectraMax M5 microplate reader with excitation of 328 nm and emission of 393 nm. The determined initial rates of cleavage were expressed as percent of control (DMSO control) after subtracting the baseline rates (without enzyme). IC50 values were determined by Sigmoidal 4PL modeling of multiple data points from serial dilutions of CKPs using Prism 9 software (GraphPad). For selectivity assays with HTRA1-4^PD/PDZ constructs, the specific activities of the enzymes and enzyme:CKP inhibitor ratios were as follows: HTRA1^PD/PDZ, 12560 mRFU/min/nM – 1:667; HTRA2^PD/PDZ, 32300 mRFU/min/nM – 1:2000; HTRA3^PD/PDZ, 962 mRFU/min/nM – 1:33; HTRA4^PD/PDZ, 18 mRFU/min/nM – 1:2.

The next data set addresses T3, HTRA1^FL (Homo sapiens, UniProt Q92743).
T3 construct: Human full-length HTRA1 (HTRA1^FL, Q23-P480); made in house; host or cells: Trichoplusia ni cells
In words: HTRA1^FL enzyme inhibition assay with synthetic substrate H2-OPT. The class given is biochemical. On the procedure:
as §1

A short description of another data set: CKP stability assay. In kind it is physicochemical. To be noted: chemical stability, PBS containing 0.15% DMSO, 0.3 mM (~1 mg/ml), 37 °C, LC-MS, HPLC UV 220 nm peak area normalized to DMSO peak, two independent experiments, preliminary. The protocol: The CKPs 1G10 and 1G10-ENI were incubated in PBS containing 0.15% DMSO at a concentration of 0.3 mM (~1 mg/ml) at 37 °C for 30 days. Samples from two independently performed experiments were frozen at −20 °C until further analysis. Thawed samples were diluted in H2O and injected into LC-MS (Agilent). From the HPLC UV trace (at 220 nm) the CKP peak area was normalized to the DMSO peak area from the same run. The values obtained from multiple HPLC runs were averaged and shown as dot plot.

[1] abbreviates: SPR Biacore S200, 25 °C, single cycle kinetics, 1:1 Langmuir model.
Setting [2] is: SPR, calculated from kon and koff, CPI up to 10 µM.

Entries after “also recorded” stand apart in the source; their conditions may differ. Positions of bridges follow the written chain, without caps; N, C: chain ends. Residues, ends and D or L forms follow the SMILES beside them. No end group written: not given here.

T1 sequence (Q92743 161-379 S328A): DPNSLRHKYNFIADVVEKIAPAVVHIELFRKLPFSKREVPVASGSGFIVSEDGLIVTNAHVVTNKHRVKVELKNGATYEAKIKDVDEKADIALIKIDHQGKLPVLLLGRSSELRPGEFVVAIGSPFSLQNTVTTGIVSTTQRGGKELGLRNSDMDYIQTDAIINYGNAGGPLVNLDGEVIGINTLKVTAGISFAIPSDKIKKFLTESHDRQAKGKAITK
T3 sequence (Q92743 23-480): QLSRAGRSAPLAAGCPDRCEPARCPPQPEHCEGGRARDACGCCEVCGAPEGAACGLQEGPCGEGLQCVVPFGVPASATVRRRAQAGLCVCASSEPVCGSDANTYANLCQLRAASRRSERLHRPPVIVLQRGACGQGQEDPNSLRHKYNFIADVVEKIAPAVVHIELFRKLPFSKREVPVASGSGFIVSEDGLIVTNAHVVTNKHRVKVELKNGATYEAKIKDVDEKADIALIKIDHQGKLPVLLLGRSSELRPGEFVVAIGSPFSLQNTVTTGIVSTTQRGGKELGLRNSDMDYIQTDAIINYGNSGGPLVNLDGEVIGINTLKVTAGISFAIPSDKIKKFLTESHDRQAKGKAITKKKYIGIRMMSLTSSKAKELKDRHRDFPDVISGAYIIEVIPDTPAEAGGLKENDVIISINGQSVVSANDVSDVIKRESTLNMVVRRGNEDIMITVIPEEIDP

For the compound `CC[C@H](C)[C@H](NC(=O)[C@H](CCC(N)=O)NC(=O)[C@H](CCCNC(=N)N)NC(=O)[C@H](CC(C)C)NC(=O)CNC(=O)[C@H](Cc1c[nH]c2ccccc12)NC(=O)CNC(=O)[C@@H]1CSSC[C@@H]2NC(=O)[C@H](CC(=O)O)NC(=O)[C@H](CC(=O)O)NC(=O)[C@H](Cc3c[nH]cn3)NC(=O)[C@H]([C@@H](C)O)NC(=O)[C@H](CCCCN)NC(=O)[C@@H]3CSSC[C@H](NC(=O)[C@H]([C@@H](C)O)NC(=O)[C@H](CCC(N)=O)NC(=O)[C@H](CSSC[C@H](NC(=O)[C@@H](NC(=O)[C@@H]4CCCN4C(=O)[C@H](CC(=O)O)NC(=O)[C@H](C)NC(=O)[C@@H](N)Cc4c[nH]cn4)[C@@H](C)CC)C(=O)N[C@@H](CC(N)=O)C(=O)N[C@@H](CCCCN)C(=O)N4CCC[C@H]4C(=O)N3)NC(=O)[C@H](Cc3ccccc3)NC(=O)[C@H](Cc3c[nH]c4ccccc34)NC(=O)[C@H](C)NC(=O)CNC(=O)[C@H](CO)NC2=O)C(=O)N[C@@H](Cc2ccc(O)cc2)C(=O)N[C@@H](Cc2ccc(O)cc2)C(=O)N[C@@H](C)C(=O)N[C@@H]([C@@H](C)O)C(=O)N[C@@H](Cc2c[nH]c3ccccc23)C(=O)N[C@@H](CO)C(=O)N1)C(=O)N[C@@H](CC(=O)O)C(N)=O` [1A8] (H-HADPICNKPCKTHDDCSGAWFCQTCYYATWSCGWGLRQID-NH2; disulfide 6-22, 10-25, 16-32), at HTRA1^PD(SA) (setting [1]), the koff is recorded as 0.5 ± 0.1 s-1 x10-4 and the kon is 8.2 ± 3.5 M-1 s-1 x104. Further, the Kd at HTRA1^PD(SA) (setting [2]) was 0.66 ± 0.42 nM. In addition, the “Reduction of HTRA4^FL activity, H2-OPT” value on HTRA4^PD/PDZ, HTRA4^FL was determined as 13%. Moreover, half-maximal inhibition against HTRA1^FL (IC50) required 1.9 ± 0.15 nM.
On HTRA1^FL, `CC[C@H](C)[C@H](NC(=O)[C@H](CCC(N)=O)NC(=O)[C@H](CCCNC(=N)N)NC(=O)[C@H](CC(C)C)NC(=O)CNC(=O)[C@H](Cc1c[nH]c2ccccc12)NC(=O)CNC(=O)[C@@H]1CSSC[C@@H]2NC(=O)[C@H](CC(=O)O)NC(=O)[C@H](CC(=O)O)NC(=O)[C@H](Cc3c[nH]cn3)NC(=O)[C@H]([C@@H](C)O)NC(=O)[C@H](CCCCN)NC(=O)[C@@H]3CSSC[C@H](NC(=O)[C@H]([C@@H](C)O)NC(=O)[C@H](CCC(N)=O)NC(=O)[C@H](CSSC[C@H](NC(=O)[C@@H](NC(=O)[C@@H]4CCCN4C(=O)[C@H](CC(=O)O)NC(=O)[C@H](C)NC(=O)[C@@H](N)Cc4c[nH]cn4)[C@@H](C)CC)C(=O)N[C@@H](CC(N)=O)C(=O)N[C@@H](CCCCN)C(=O)N4CCC[C@H]4C(=O)N3)NC(=O)[C@H](Cc3ccccc3)NC(=O)[C@H](Cc3c[nH]c4ccccc34)NC(=O)[C@H](C)NC(=O)CNC(=O)[C@H](CO)NC2=O)C(=O)N[C@@H](Cc2ccc(O)cc2)C(=O)N[C@@H](Cc2ccc(O)cc2)C(=O)N[C@@H](C)C(=O)N[C@@H](CO)C(=O)N[C@@H](Cc2c[nH]c3ccccc23)C(=O)N[C@@H](CO)C(=O)N1)C(=O)N[C@@H](CC(=O)O)C(N)=O` [1A8.L5.2] (H-HADPICNKPCKTHDDCSGAWFCQTCYYASWSCGWGLRQID-NH2; disulfide 6-22, 10-25, 16-32) returned an IC50 of 2 ± 0.2 nM.
As to `CC[C@H](C)[C@H](NC(=O)[C@@H]1CCCN1C(=O)[C@H](CC(=O)O)NC(=O)[C@H](C)NC(=O)[C@@H](N)Cc1c[nH]cn1)C(=O)N[C@H]1CSSC[C@@H]2NC(=O)[C@H](Cc3ccccc3)NC(=O)[C@H](Cc3c[nH]c4ccccc34)NC(=O)[C@H](C)NC(=O)CNC(=O)[C@H](CO)NC(=O)[C@@H]3CSSC[C@@H](C(=O)NCC(=O)N4CCC[C@H]4C(=O)N[C@@H](Cc4ccc(O)cc4)C(=O)N[C@H](C(=O)NCC(N)=O)C(C)C)NC(=O)[C@H]([C@@H](C)O)NC(=O)[C@H](CCCNC(=N)N)NC(=O)[C@H](C)NC(=O)[C@H](CO)NC(=O)[C@H](CC(N)=O)NC(=O)[C@H](Cc4c[nH]c5ccccc45)NC(=O)[C@H](CSSC[C@H](NC(=O)[C@@H]4CCCN4C(=O)[C@H](CCCCN)NC(=O)[C@H](CC(N)=O)NC1=O)C(=O)N[C@@H](CCCCN)C(=O)N[C@@H]([C@@H](C)O)C(=O)N[C@@H](Cc1c[nH]cn1)C(=O)N[C@@H](CC(=O)O)C(=O)N[C@@H](CC(=O)O)C(=O)N3)NC(=O)[C@H](C)NC(=O)[C@H](CCC(N)=O)NC2=O` [CPI, reference compound] (H-HADPICNKPCKTHDDCSGAWFCQACWNSARTCGPYVG-NH2; disulfide 6-22, 10-25, 16-32), on HTRA1^PD(SA) (setting [2]), the KD result was “No binding”. In addition, the “Inhibition of HTRA1^FL activity (inhibition curves)” value on HTRA1^FL (H2-OPT substrate, Fig. 1b) is “no activity”.
As to “YPVDPICNKPCKTHDDCSGAWFCQTCYYATWSCGWGLRQID-NH2 (disulfide 7-23, 11-26, 17-33) [1G10]”, in “CKP stability assay”, the “Stability: intact peptide after 30 days” value is recorded as “no change in peptide mass at 30 days; also recorded: highly stable”.
